How the values were obtained:
[1] = molecular target: T1, wild-type nAChR α7 receptors (Homo sapiens, UniProt P36544); assay: Positive modulation of acetylcholine-induced currents, two-electrode voltage clamp in Xenopus oocytes; type: cell-based; details: for maximal modulation of the acetylcholine (control) response (Imax) / EC50: 100 μM acetylcholine, nAChR α7 expressed in Xenopus laevis oocytes; for maximal modulation of the acetylcholine (control) response (Imax): (test-control)/control×100%; for EC50: clamped at −60 mV, compound 0.01-31.6 μM, read-out: EC50 for positive modulation of acetylcholine responses; for effect on acetylcholine-induced current amplitude: 0.01-31.6 μM compound applied 30 s before and during 100 μM acetylcholine application
T1 construct: expressed in transfected cells; host or cells: Xenopus laevis oocytes
Method: In this example the positive modulation of wild-type nAChR α7 receptors by Compound 1 (FIGS. 1A and 1B) and Compound 3 (FIGS. 2A and 2B) was determined using nAChR α7 receptors heterologously expressed in Xenopus laevis oocytes.
The electrical current through the nAChR α7 channel was measured using conventional two-electrode voltage clamp and nAChR α7 currents were activated by applying pulses of agonist-containing solution onto the nAChR α7 expressing oocyte. In brief, the oocytes were placed in a recording chambers and continuously superfused with an Oocyte Ringer (OR) solution containing 90 mM NaCl, 2.5 mM KCl, 2.5 mM CaCl2, 1 mM MgCl2 and 5 mM HEPES (pH adjusted to 7.4). The oocytes were clamped at −60 mV and currents were induced by applying 20 s pulses of 100 μM acetylcholine dissolved in OR. The intervals between the acetylcholine applications were 5 minutes, during which the oocytes were washed with OR. The first three applications were control applications to insure a constant response level of 100 μM acetylcholine.
The positive modulation in the presence of Compound 1 and Compound 3 was calculated as (test-control)/control×100% and the concentration response curve for this positive modulation was fitted to the sigmoidal logistic equation: I=Imax/(1+(EC50/[compound])^n), where Imax represents the maximal modulation of the control response, EC50 is the concentration causing a half maximal response, and n is the slope coefficient.

T1 sequence (P36544 23-502): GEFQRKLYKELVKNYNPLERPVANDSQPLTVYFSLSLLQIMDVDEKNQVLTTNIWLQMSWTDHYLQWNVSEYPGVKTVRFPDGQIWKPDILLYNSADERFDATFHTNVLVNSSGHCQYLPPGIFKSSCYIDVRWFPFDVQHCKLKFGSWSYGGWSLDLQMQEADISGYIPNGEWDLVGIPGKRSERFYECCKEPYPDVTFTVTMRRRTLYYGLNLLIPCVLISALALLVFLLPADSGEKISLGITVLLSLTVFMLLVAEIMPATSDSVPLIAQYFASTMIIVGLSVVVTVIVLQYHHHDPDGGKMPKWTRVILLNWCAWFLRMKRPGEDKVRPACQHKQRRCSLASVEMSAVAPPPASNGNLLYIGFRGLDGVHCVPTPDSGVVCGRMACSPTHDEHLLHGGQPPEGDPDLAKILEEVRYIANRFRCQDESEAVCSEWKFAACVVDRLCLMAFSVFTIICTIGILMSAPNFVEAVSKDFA

Row | melting point | Structure (SMILES) | further results
1 | 114.8 to 116.2 °C | CC(=O)Nc1ccc(-c2nnn(-c3ccc(C(F)(F)F)cc3F)c2N)cc1 [Compound 11, N-{4-[5-Amino-1-(2-fluoro-4-trifluoromethyl-phenyl)-1H-[1,2,3]triazol-4-yl]-phenyl}-acetamide] | –
2 | 161 to 162.3 °C | Nc1c(-c2ccc(O)cc2)nnn1-c1ccc(C(F)(F)F)cc1Cl [Compound 21, 4-[5-Amino-1-(2-chloro-4-trifluoromethyl-phenyl)-1H-[1,2,3]triazol-4-yl]-phenol] | –
3 | 169.9 to 170.2 °C | Nc1c(-c2ccc(Cl)cc2)nnn1-c1ccc(C(F)(F)F)cc1F [Compound 18, 5-(4-Chloro-phenyl)-3-(2-fluoro-4-trifluoromethyl-phenyl)-3H-[1,2,3]triazol-4-ylamine] | –
4 | 163.6 to 165 °C | Nc1ccc(-c2nnn(-c3ccc(C(F)(F)F)cc3F)c2N)cc1 [Compound 12, 5-(4-Amino-phenyl)-3-(2-fluoro-4-trifluoromethyl-phenyl)-3H-[1,2,3]triazol-4-ylamine] | –
5 | 176.2 to 177.5 °C | Nc1c(-c2ccc(C(F)(F)F)cc2F)nnn1-c1ccc(O)cc1 [Compound 17, 4-[5-Amino-4-(2-fluoro-4-trifluoromethyl-phenyl)-[1,2,3]triazol-1-yl]-phenol] | –
6 | 184.6 to 186.1 °C | Nc1c(-c2ccc(-c3nnco3)cc2)nnn1-c1ccc(C(F)(F)F)cc1F [Compound 10, 3-(2-Fluoro-4-trifluoromethyl-phenyl)-5-(4-[1,3,4]oxadiazol-2-yl-phenyl)-3H-[1,2,3]triazol-4-ylamine] | –
7 | 130 to 130.7 °C | COc1ccc(-c2nnn(-c3ccc(C(F)(F)F)cc3Cl)c2N)cc1 [Compound 3, 3-(2-Chloro-4-trifluoromethyl-phenyl)-5-(4-methoxy-phenyl)-3H-[1,2,3]triazol-4-ylamine] | maximal modulation of the acetylcholine (control) response (Imax) [1]: 563%; EC50 [1]: 1.7 µM; effect on acetylcholine-induced current amplitude [1]: robust increase
8 | 134.2 to 134.9 °C | Nc1c(-c2ccc(OC(F)(F)F)cc2)nnn1-c1ccc(C(F)(F)F)cc1F [Compound 19, 3-(2-Fluoro-4-trifluoromethyl-phenyl)-5-(4-trifluoromethoxy-phenyl)-3H-[1,2,3]triazol-4-ylamine] | –
9 | 164.6 to 165.5 °C | COc1ccc(-n2nnc(-c3ccc(C(F)(F)F)cc3F)c2N)cc1 [Compound 16, 5-(2-Fluoro-4-trifluoromethyl-phenyl)-3-(4-methoxy-phenyl)-3H-[1,2,3]triazol-4-ylamine] | –
10 | 163.5 to 165.2 °C | Nc1c(-c2ccc(O)cc2)nnn1-c1ccc(C(F)(F)F)cc1F [Compound 15, 4-[5-Amino-1-(2-fluoro-4-trifluoromethyl-phenyl)-1H-[1,2,3]triazol-4-yl]-phenol] | –

Second part, the compound before the results:

Row | Structure (SMILES) | melting point | further results
11 | COc1ccc(-c2nnn(-c3ccc(Cl)cc3Cl)c2N)cc1 [Compound 1, 3-(2,4-Dichloro-phenyl)-5-(4-methoxy-phenyl)-3H-[1,2,3]triazol-4-ylamine] | 149.2 to 150.7 °C | maximal modulation of the acetylcholine (control) response (Imax) [1]: 561%; EC50 [1]: 4.9 µM; effect on acetylcholine-induced current amplitude [1]: robust increase
12 | COc1ccc(-n2nnc(-c3ccc(Cl)cc3C(F)(F)F)c2N)cc1 [Compound 23, 5-(4-Chloro-2-trifluoromethyl-phenyl)-3-(4-methoxy-phenyl)-3H-[1,2,3]triazol-4-ylamine] | 159.2 to 160.2 °C | –
13 | COc1ccc(-n2nnc(-c3ccc(Cl)cc3F)c2N)cc1 [Compound 27, 5-(4-Chloro-2-fluoro-phenyl)-3-(4-methoxy-phenyl)-3H-[1,2,3]triazol-4-ylamine] | 147.9 to 149.5 °C | –
14 | COc1ccc(-c2nnn(-c3c(Cl)cc(Cl)cc3I)c2N)cc1 [Compound 22, 3-(2,4-Dichloro-6-iodo-phenyl)-5-(4-methoxy-phenyl)-3H-[1,2,3]triazol-4-ylamine] | 72.5 to 73.6 °C | –
15 | COc1ccc(Cl)cc1-c1nnn(-c2ccc(C(F)(F)F)cc2Cl)c1N [Compound 2, 5-(5-Chloro-2-methoxy-phenyl)-3-(2-chloro-4-trifluoromethyl-phenyl)-3H-[1,2,3]triazol-4-ylamine] | 152.8 to 153.3 °C | –
16 | COc1ccc(-n2nnc(-c3ccc(F)cc3Cl)c2N)cc1 [Compound 25, 5-(2-Chloro-4-fluoro-phenyl)-3-(4-methoxy-phenyl)-3H-[1,2,3]triazol-4-ylamine] | 175 to 176.8 °C | –
17 | COc1ccc(Cl)cc1-c1nnn(-c2ccc(Cl)cc2Cl)c1N [Compound 4, 5-(5-Chloro-2-methoxy-phenyl)-3-(2,4-dichloro-phenyl)-3H-[1,2,3]triazol-4-ylamine] | 153.5 to 154.7 °C | –
18 | COc1ccc(-c2nnn(-c3ccc(F)cc3Cl)c2N)cc1 [Compound 5, 3-(2-Chloro-4-fluoro-phenyl)-5-(4-methoxy-phenyl)-3H-[1,2,3]triazol-4-ylamine] | 136.3 to 141.2 °C | –
19 | COc1ccc(-n2nnc(-c3ccc(Cl)cc3Cl)c2N)cc1 [Compound 6, 5-(2,4-Dichloro-phenyl)-3-(4-methoxy-phenyl)-3H-[1,2,3]triazol-4-ylamine] | 154.6 to 163.9 °C | –
20 | Nc1c(-c2cc(Cl)ccc2O)nnn1-c1ccc(C(F)(F)F)cc1Cl [Compound 9, 2-[5-Amino-1-(2-chloro-4-trifluoromethyl-phenyl)-1H-[1,2,3]triazol-4-yl]-4-chloro-phenol] | 74.5 to 77.5 °C | –
21 | COc1ccc(-c2nnn(-c3cc(C)on3)c2N)cc1 [Compound 7, 5-(4-Methoxy-phenyl)-3-(5-methyl-isoxazol-3-yl)-3H-[1,2,3]triazol-4-yl amine] | 136.3 to 141.2 °C | –
22 | Nc1c(-c2ccc(C(F)(F)F)cc2F)nnn1-c1ccc(S(N)(=O)=O)cc1 [Compound 13, 4-[5-Amino-4-(2-fluoro-4-trifluoromethyl-phenyl)-[1,2,3]triazol-1-yl]-benzenesulfonamide] | 183.8 to 185.2 °C | –
23 | COc1ccc(-n2nnc(-c3ccc(Cl)c(Cl)c3)c2N)cc1 [Compound 26, 5-(3,4-Dichloro-phenyl)-3-(4-methoxy-phenyl)-3H-[1,2,3]triazol-4-ylamine] | 189.9 to 191.3 °C | –
24 | Nc1c(-c2cc(Cl)ccc2O)nnn1-c1ccc(Cl)cc1Cl [Compound 8, 2-[5-Amino-1-(2,4-dichloro-phenyl)-1H-[1,2,3]triazol-4-yl]-4-chloro-phenol] | 131.3 to 135.6 °C | –
25 | COc1ccc(-n2nnc(-c3ccc(F)cc3F)c2N)cc1 [Compound 24, 5-(2,4-Difluoro-phenyl)-3-(4-methoxy-phenyl)-3H-[1,2,3]triazol-4-ylamine] | 152 to 156.5 °C | –

— patent US8110588B2, “1,2,3-triazole derivatives useful as modulators of nicotinic acetylcholine receptors” (Neurosearch A/S, priority 2007, dated 2012)
